Data as given in patent US20070135383A1, “Phospholipase inhibitors, including multi-valent phospholipase inhibitors, and use thereof, including as lumen-localized phospholipase inhibitors” (priority 2005, published 2007).

Experiment: Pharmacokinetic study of ILY-4001, IV and oral (Example 1B-3)
Type: in vivo, mice
Conditions: 30 mg/kg oral
Procedure: This example evaluated the bioavailability of ILY-4001 [2-(3-(2-amino-2-oxoacetyl)-1-(biphenyl-2-ylmethyl)-2-methyl-1H-indol-4-yloxy)acetic acid], alternatively referred to herein as methyl indoxam. Specifically, a pharmokinetic study was conducted to determine the fraction of unchanged ILY-4001 in systemic circulation following administration.
Bioavailability was calculated as a ratio of AUC-oral/AUC-intravenous (IV). To determine this ratio, a first set of subject animals were given a measured intravenous (IV) dose of ILY-4001, followed by a determination of ILY-4001 levels in the blood at various time points after administration (e.g., 5 minutes through 24 hours). Another second set of animals was similarly dosed using oral administration, with blood levels of ILY-4001 determined at various time points after administration (e.g., 30 minutes through 24 hours). The level of ILY-4001 in systemic circulation were determined by generally accepted methods (for example as described in Evans, G., A Handbook of Bioanalysis and Drug Metabolism. Boca Raton, CRC Press (2004)). Specifically, […]/mass spectrometry/mass spectrometry (LC/MS/MS) analytical methods were used to quantitate plasma concentrations of ILY-4001 after oral and intravenous administration. Pharmacokinetic parameters that were measured include Cmax, AUC, tmax, t1/2, and F (bioavailability). […]

**Q.** With `Cc1c(C(=O)C(N)=O)c2c(OCC(=O)O)cccc2n1Cc1ccccc1-c1ccccc1` [ILY-4001, 2-(3-(2-amino-2-oxoacetyl)-1-(biphenyl-2-ylmethyl)-2-methyl-1H-indol-4-yloxy)acetic acid] as the compound, how does the “level of non-absorption from the GI tract into systemic circulation” value read?
**A.** The value was about 72%.
